Test results: patent US20220273689A1, “POTENTIATION OF ANTIVIRAL NUCLEOBASES AS RNA VIRUS THERAPY” (REGENTS OF THE UNIVERSITY OF MINNESOTA, priority 2019, published 2022)
“Also recorded” adds a separate entry of the source. Like-named read-outs stand apart in the source and are kept apart here.

Legend:
[1] = Cell viability assay (MTS) in DENV replicon cells; details: hamster
[2] = test system: DENV replicon cells (BHK); assay: Cell viability assay (MTS) in DENV replicon cells; details: for CC50: DENV replicon BHK cells, MTS, 72 h
DENV replicon = assay type: cell-based, Dengue virus (DENV); details: for antiviral activity of nucleobase alone: 0.6 μM nucleobase, without 6-MMPR; for antiviral (anti-replicon) activity when supplemented with 6-MMPR: nucleobase supplemented with 0.01 μM 6-MMPR
[3] = Safety of the combination in DENV mouse model; assay type: in vivo; details: health of the mice / body weight
Description: The mice were treated with Vehicle, the combination T-1105 (3a)+6-MMPR, 1105 only, and PBS. Viral genomes were detected and quantitated by RT-qPCR at 2 or 4 days post infection. […] These studies help predict a safe dose and timing of administration of the combination of favipiravir (T705) and 6-MMPR to treat RNA virus infections, such as SARS-CoV-2.

IAV = assay: Protection of Huh7 cells from IAV-induced cytopathic effects (MTS); assay type: cell-based, influenza A virus
ZIKV = assay: Potentiation in replication-competent ZIKV titer reduction assay using Huh-7 cells; details: 0.1 μM 6-MMPR, infectious virus titer
Description: DENV and ZIKV. Huh7 cells were plated in each well of a 24 well plate (1×10^5/well). Twenty-four hours later, cells were inoculated with DENV 2 or ZIKV at a multiplicity of infection (MOI) of 0.05. Two hours post-inoculation, inoculum was retired and fresh medium containing treatment was added. Columns 1 to 6 were treated with increasing concentrations of 6-MMPR (0, 0.025, 0.05, 0.1, 0.2 and 0.4 μM). Rows A to D were treated with 0, 25, 50 and 100 μM of T-1105. Supernatants were collected after 72 hours post-infection and infectious virions were analyzed by plaque assay as extent of infectious virus production.

DENV-2 viral replicon [4] = assay: microbe, parasite or virus in culture; details: Dengue virus, DENV2, BHK, 72 h
HCoV-OC43 = assay: Potentiation against HCoV-OC43 in Huh7 cells; assay type: cell-based, human betacoronavirus OC43; details: HCoV-OC43, combination with 6-MMPR, MacSynergy; listed as favipiravir
Description: HCoV-OC43. Huh7 cells were 12,500 Huh7 cells were seeded in a 96 well plate. Next day, the cells were inoculated with OC43 virus at a MOI (multiplicity of infection) of 0.5 for two hours. Next, the inoculum was removed and cells were treated with different combinations of 6MMPr and T-705 or remdesivir 1 μM (RDV) as positive control. Three wells per treatment were used. Cells were incubated for 5 days. Infected and treated cells were analyzed for cell viability by MTS and absorbance was measured at 490 nm.

DENV 2 = assay: Potentiation in replication-competent DENV assay using Huh-7 cells (plaque assay, MacSynergy II); details: for synergy/potentiation with 6-MMPR for reduction in DENV replication: Huh7 cells, 0.1 μM 6-MMPR, infectious virus titer (FIG. 9); for potentiation/synergy with 6-MMPR of anti-DENV activity: Huh-7 cells, matrix of 6-MMPR and T-1105, infectious virus titer (FIG. 6)
Description: Huh7 cells were plated in each well of a 24 well plate (1×10^5/well). Twenty-four hours later, cells were inoculated with DENV 2 or ZIKV at a multiplicity of infection (MOI) of 0.05. Two hours post-inoculation, inoculum was retired and fresh medium containing treatment was added. Columns 1 to 6 were treated with increasing concentrations of 6-MMPR (0, 0.025, 0.05, 0.1, 0.2 and 0.4 μM). Rows A to D were treated with 0, 25, 50 and 100 μM of T-1105. Supernatants were collected after 72 hours post-infection and infectious virions were analyzed by plaque assay as extent of infectious virus production. For FIG. 5, Huh7 cells were inoculated with DENV or ZIKV and treated with different concentrations of T-1105 (0, 3, 9, 27, 51 or 243 μM), T-1106 (0, 6.7, 20, 60, 180 or 540 μM) and T-705 (same concentrations as T-1106) in combination with 0.1 μM AM28 or DMSO. After 72 hours post infection supernatants were collected and analyzed for viral yield by plaque assay.

DENV-2 viral replicon [5] = details: for TTI, tissue culture therapeutic index (CC50/EC50): DENV replicon BHK cells
DENV = DENV titer reduction assay in Huh-7 cells, dose-response; assay type: cell-based; details: Dengue virus
[6] = combination with 6-MMPR (AM28), MacSynergy II

NC(=O)c1nc(F)cnc1O [Compound 5a, 6-fluoro-3-hydroxypyrazine-2-carboxamide, reference compound]
CC50 at 72 h [1]: > 665 µM
CC50 [2]: > 1000 µM
synergy with 6-MMPR for reduction in DENV replicon replication (DENV replicon): synergistic effect
safety of the combination with 6-MMPR [3]: safe
synergy with 6-MMPR against IAV (IAV): synergistic antiviral effect; also recorded: clear synergy peak
protection of cells from IAV-induced cytopathic effects (CPE) (IAV; Huh7 cells, in combination with 6MMPR, listed as favipiravir): can protect cells; also recorded: protection of human cells from IAV-induced cell death
synergy/potentiation with 6-MMPR for reduction in ZIKV replication (ZIKV): showed synergy
synergy/potentiation with 6-MMPR for reduction in ZIKV replication (ZIKV; listed as T-705): synergistic effect
synergy/potentiation with 6-MMPR for reduction in ZIKV replication (ZIKV; listed as favipiravir): synergistic antiviral effect
EC50 (DENV-2 viral replicon [4]): 110 ± 30 µM
synergy with 6-MMPR in inhibiting production of infectious coronavirus particles (HCoV-OC43): synergistic antiviral effect; also recorded: synergistically increases; also recorded: clear synergistic effect
synergy/potentiation with 6-MMPR for reduction in DENV replication (DENV 2; listed as T-705): synergistic effect
synergy/potentiation with 6-MMPR for reduction in DENV replication (DENV 2; listed as favipiravir): synergistic antiviral effect

CSc1ncnc2c1ncn2[C@@H]1O[C@H](CO)[C@@H](O)[C@H]1O [Compound 6-MMPR, (2R,3S,4R,5R)-2-(hydroxymethyl)-5-(6-(methylthio)-9H-purin-9-yl)tetrahydrofuran-3,4-diol]
antiviral activity of 6-MMPR alone (DENV replicon; 0.01 μM, alone): lack of antiviral activity
potentiation of nucleobase anti-replicon activity (DENV replicon; 6-MMPR 0.0025 and 0.005 μM): did not potentiate nucleobase anti-replicon activity
anti-replicon activity of their own (DENV replicon; 6-MMPR 0.0025 and 0.005 μM, alone): nor did they have anti-replicon activity of their own

COc1c(C)c2c(c(O)c1C/C=C(C)/C=C(\C)C(=O)O)C(=O)OC2 [Compound 6, (2E,4E)-6-(4-hydroxy-6-methoxy-7-methyl-3-oxo-1,3-dihydroisobenzofuran-5-yl)-2,4-dimethylhexa-2,4-dienoic acid, reference compound]
CC50 [2]: 1.4 ± 0.4 µM
EC50 (DENV-2 viral replicon [4]): 0.3 ± 0.03 µM
TTI, tissue culture therapeutic index (CC50/EC50) (DENV-2 viral replicon [5]): 4.7

NC(=O)c1nc[nH]n1 [Compound 1a, 1H-1,2,4-triazole-3-carboxamide]
CC50 at 72 h [1]: > 665 µM
CC50 [2]: > 1000 µM
cytotoxicity ([2]; at 1000 μM): did not show cytotoxicity
antiviral activity of nucleobase alone (DENV replicon): no antiviral activity
antiviral (anti-replicon) activity when supplemented with 6-MMPR (DENV replicon): an increase in antiviral activity was observed
EC50 (DENV-2 viral replicon [4]): 4.9 ± 1.6 µM
TTI, tissue culture therapeutic index (CC50/EC50) (DENV-2 viral replicon [5]): 204

NC(=O)c1nc[nH]c1O [Compound 2a, 5-hydroxy-1H-imidazole-4-carboxamide]
CC50 [2]: 23 ± 4.2 µM
antiviral activity of nucleobase alone (DENV replicon): no antiviral activity
antiviral (anti-replicon) activity when supplemented with 6-MMPR (DENV replicon): an increase in antiviral activity was observed
EC50 (DENV-2 viral replicon [4]): 2.4 ± 0.1 µM
TTI, tissue culture therapeutic index (CC50/EC50) (DENV-2 viral replicon [5]): 9.6

NC(=O)c1ncn([C@@H]2O[C@H](CO)[C@@H](O)[C@H]2O)c1O [Compound 2b, 1-((2R,3R,4S,5R)-3,4-dihydroxy-5-(hydroxymethyl)tetrahydrofuran-2-yl)-5-hydroxy-1H-imidazole-4-carboxamide, reference compound]
CC50 [2]: 33 ± 12 µM
EC50 (DENV-2 viral replicon [4]): 15 ± 7.8 µM
TTI, tissue culture therapeutic index (CC50/EC50) (DENV-2 viral replicon [5]): 2.2

Nc1nc(N)c2[nH]cnc2n1 [Compound 4a, 9H-purine-2,6-diamine]
CC50 [2]: 13 ± 2.1 µM

NC(=O)c1nccn([C@@H]2O[C@H](CO)[C@@H](O)[C@H]2O)c1=O [Compound 3b, 4-((2R,3R,4S,5R)-3,4-dihydroxy-5-(hydroxymethyl)tetrahydrofurran-2-yl)-3-oxo-3,4-dihydropyrazine-2-carboxamide]
CC50 [2]: > 1000 µM
synergy with 6-MMPR for reduction in DENV replicon replication (DENV replicon; [6]): did not result in significant synergy
synergy with 6-MMPR for reduction in DENV replicon replication (DENV replicon; combination with 6-MMPR (AM28), MacSynergy II, listed as T-1106): synergistic effect
EC50 (DENV): 60 ± 22 µM
synergy/potentiation with 6-MMPR for reduction in ZIKV replication (ZIKV): did not potentiate
synergy/potentiation with 6-MMPR for reduction in ZIKV replication (ZIKV; listed as T-1106): does not produce a synergistic effect
EC50 (DENV-2 viral replicon [4]): 113 ± 11 µM
TTI, tissue culture therapeutic index (CC50/EC50) (DENV-2 viral replicon [5]): 8.8
synergy/potentiation with 6-MMPR for reduction in DENV replication (DENV 2): almost entirely an additive result
synergy/potentiation with 6-MMPR for reduction in DENV replication (DENV 2; listed as T-1106): does not produce a synergistic effect

NC(=O)c1ncn([C@@H]2O[C@H](CO)[C@@H](O)[C@H]2O)n1 [Compound 1b, 1-((2R,3R,4S,5R)-3,4-dihydroxy-5-(hydroxymethyl)tetrahydrofuran-2-yl)-1H-1,2,4-triazole-3-carboxamide, reference compound]
EC50 (DENV-2 viral replicon [4]): 1.3 ± 0.1 µM

NC(=O)c1nccnc1O [Compound 3a, 3-hydroxypyrazine-2-carboxamide]
cellular toxicity (Huh-7 cells): absence of cellular toxicity
CC50 at 72 h [1]: > 665 µM
CC50 [2]: > 665 µM
synergy with 6-MMPR for reduction in DENV replicon replication (DENV replicon; [6]): Stronger synergy
synergy with 6-MMPR for reduction in DENV replicon replication (DENV replicon; combination with 6-MMPR (AM28), MacSynergy II, listed as T-1105): synergistic effect
EC50 (DENV): 20 ± 11 µM
synergy/potentiation with 6-MMPR for reduction in ZIKV replication (ZIKV): showed synergy
synergy/potentiation with 6-MMPR for reduction in ZIKV replication (ZIKV; listed as T-1105): synergistic effect
EC50 (DENV-2 viral replicon [4]): 21 ± 0.7 µM
times more active than nucleobase 5a (favipiravir) (DENV-2 viral replicon [5]; DENV replicon): 5
TTI, tissue culture therapeutic index (CC50/EC50) (DENV-2 viral replicon [5]): 32
synergy/potentiation with 6-MMPR for reduction in DENV replication (DENV 2): synergistic effect
potentiation/synergy with 6-MMPR of anti-DENV activity (DENV 2): strongly potentiates
potentiation/synergy with 6-MMPR of anti-DENV activity (DENV 2; listed as T-1105): synergistic effect
